In the first test the target is T1, menin.FITC-MBM1 complex (terbium chelate-labeled menin) (Homo sapiens, UniProt O00255, F410E/T541A).
T1 construct: Menin (a.a. 1-610-6×his tag) was labeled with terbium cryptate as follows
T1 sequence (O00255 with tags, fused parts or gaps F410E/T541A): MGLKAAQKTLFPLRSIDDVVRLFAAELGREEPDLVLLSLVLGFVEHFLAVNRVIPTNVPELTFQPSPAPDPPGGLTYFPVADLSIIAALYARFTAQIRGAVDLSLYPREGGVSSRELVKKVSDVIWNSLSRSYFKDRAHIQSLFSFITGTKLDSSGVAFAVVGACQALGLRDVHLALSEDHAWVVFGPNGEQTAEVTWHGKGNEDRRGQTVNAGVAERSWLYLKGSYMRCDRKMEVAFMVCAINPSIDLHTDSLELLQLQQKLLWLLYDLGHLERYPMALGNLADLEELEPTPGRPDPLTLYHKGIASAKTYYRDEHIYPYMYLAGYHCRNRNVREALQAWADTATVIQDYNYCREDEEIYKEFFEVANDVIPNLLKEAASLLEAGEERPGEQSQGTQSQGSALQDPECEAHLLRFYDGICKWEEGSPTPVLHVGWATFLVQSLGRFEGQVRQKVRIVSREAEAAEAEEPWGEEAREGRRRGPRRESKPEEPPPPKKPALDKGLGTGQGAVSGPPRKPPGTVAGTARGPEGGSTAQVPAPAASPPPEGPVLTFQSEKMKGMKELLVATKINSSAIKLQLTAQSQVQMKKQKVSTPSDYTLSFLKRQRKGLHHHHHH
As to the kind of experiment: Menin/MLL homogenous time-resolved fluorescence (HTRF) assay. In kind it is binding. The settings on record: location 1; read-out: (2) location 1 Menin HTRF assay (IC50 (nM)). The procedure:
2) Menin/MLL Homogenous Time-Resolved Fluorescence (HTRF) Assay
To an untreated, white 384-well microtiter plate was added 40 nL 200× test compound in DMSO and 4 μL 2× terbium chelate-labeled menin (vide infra for preparation) in assay buffer (40 mM Tris.HCl, pH 7.5, 50 mM NaCl, 1 mM DTT and 0.05% Plutonic F-127). After incubation of test compound and terbium chelate-labeled menin for 5 min at ambient temperature, 4 μL2× FITC-MBM1 peptide (FITC-β-alanine-[…]-NH2) in assay buffer was added, the microtiter plate centrifuged at 1000 rpm for 1 min and the assay mixtures incubated for 15 min at ambient temperature. The relative amount of menin.FITC-MBM1 complex present in an assay mixture is determined by measuring the homogenous time-resolved fluorescence (HTRF) of the terbium/FITC donor/acceptor fluorphore pair using a BMG Pherastar plate reader (ex. 337 nm/terbium em. 490 nm/FITC em. 520 nm) at ambient temperature. The degree of fluorescence resonance energy transfer (the HTRF value) is expressed as the ratio of the fluorescence emission intensities of the FITC and terbium fluorophores (F^em 520 nm/F^em 490 nm). The final concentrations of reagents in the binding assay are 100 pM terbium chelate-labeled menin (location 1) or 600 pM terbium chelate-labeled menin (location 2), 75 nM FITC-MBM1 peptide and 0.5% DMSO in assay buffer. Dose-response titrations of test compounds are conducted using an 11 point, three-fold serial dilution scheme, starting typically at 25 μM (location 1) or starting typically at 10 μM (location 2).
Compound potencies were determined by first calculating % inhibition at each compound concentration according to equation 1:
% inhibition=((HC−LC)−(HTRF^compound−LC))/(HC−LC))*100 (Eqn 1)
Where LC and HC are the HTRF values of the assay in the presence or absence of a saturating concentration of a compound that competes with FITC-MBM1 for binding to menin, and HTRF^compound is the measured HTRF value in the presence of the test compound. HC and LC HTRF values represent an average of at least 16 replicates per plate.
% inhibition=Bottom+(Top−Bottom)/(1+10^((log IC50−log [cmpd])*h)) (Eqn 2)
Where Bottom and Top are the lower and upper asymptotes of the dose-response curve, respectively, IC50 is the concentration of compound that yields 50% inhibition of signal and h is the Hill coefficient.
Preparation of Terbium cryptate labeling of Menin: Menin (a.a. 1-610-6×his tag) was labeled with terbium cryptate as follows. 2 mg of Menin was buffer exchanged into 1× phosphate buffered saline. 16 uM Menin was incubated with 4-fold molar excess NHS-terbium cryptate (Cisbio Bioassays, Bedford, Mass.) for 2 hours at room temperature. The labeled protein was purified away from free label by running the reaction over a Superdex 200 Increase 10/300 GL column at 0.75 ml/min. Peak fractions were collected, aliquoted and frozen at −80° C.
Take `CC(C)CNC1CC2(CCN(c3ncnc4sc(CC(F)(F)F)cc34)C2)C1` (stereo not shown) [Compound 50]: the half-maximal inhibitory concentration (IC50) turned out to be 95.8 nM.

Staying with this test, now noted: location 2; read-out: (2) location 2 Menin HTRF assay (IC50 (nM)).
On to `Nc1nc(N2CCC3(CC(Nc4ccc5oc(=O)[nH]c5c4)C3)C2)c2cc(CC(F)(F)F)sc2n1` (stereo not shown) [Compound 380], for which the IC50 came out at 8.7 nM.

For the compound `N#Cc1ccc(NC2CC3(CCN(c4ncnc5sc(CC(F)(F)F)cc45)C3)C2)nc1` (single isomer, unassigned) [Compound 174], the IC50 stood at 114 nM.

Take `CNC(=O)c1ccc(NC2CC3(CCN(c4ncnc5sc(CC(F)(F)F)cc45)C3)C2)c(Cl)c1` (single isomer, unassigned) [Compound 69]: the IC50 was 1.2 nM.

Turning to `O=c1[nH]c2ccc(CN[C@@H]3CCC4(C3)CN(c3ncnc5sc(CC(F)(F)F)cc35)C4)cc2o1` (single isomer, unassigned) [Compound 55], the half-inhibitory concentration (IC50) worked out at 2 nM.

Turning to `CNS(=O)(=O)c1ccc(NC2CC3(CCN(c4ncnc5sc(CC(F)(F)F)cc45)C3)C2)cc1` (stereo not shown) [Compound 317], the half-maximal inhibitory concentration (IC50) was determined as 143 nM.

For `O=c1[nH]c2ccc(NC3CC4(CCN(c5ncnc6sc(CC(F)(F)F)cc56)C4)C3)cc2[nH]1` (stereo not shown) [Compound 321], the IC50 turned out to be 91.5 nM.

For the compound `CNC(=O)c1ccc(N[C@@H]2CC[C@]3(CCN(c4ncnc5sc(CC(F)(F)F)cc45)C3)C2)cc1` (racemic) [Compound 136], the IC50 was 40.9 nM.

With `FC(F)(F)Cc1cc2c(N3CC4(CCC(Nc5ccc(-c6cn[nH]c6)cc5)C4)C3)ncnc2s1` (stereo not shown) [Compound 302], the IC50 came to 50.9 nM.

With `O=S(=O)(NC1CC2(CCN(c3ncnc4sc(CC(F)(F)F)cc34)C2)C1)c1ccccc1` (stereo not shown) [Compound 23], the IC50 turned out to be 1310 nM.

The subject of another test is MV-4-11 cells. As to the kind of experiment: Proliferation assay A (spheroid assay) MV-4-11. To be noted: Homo sapiens, MV4-11, 192 h, 8 d, AUC of confluence against time, absolute IC50, read-out: (3a) Spheroid assay MV-4-11 (IC50(μM)) Assay A. In kind it is cell-based. The procedure: 3a) Proliferation Assay A
(§1) The anti-proliferative effect of menin/MLL protein/protein interaction inhibitor test compounds was assessed in human leukemia cell lines. The cell lines MV-4-11 and MOLM14 harbor MLL translocations and express the MLL fusion proteins MLL-AF4 and MLL-AF9, respectively, as well as the wildtype protein from the second allele. […] K562 was used as a control cell line containing two MLL wildtype alleles in order to exclude compounds that display general cytotoxic effects.
(§2) MV-4-11 and MOLM14 were cultured in RPMI-1640 (Sigma Aldrich) supplemented with 10% fetal bovine serum (HyClone), 2 mM L-glutamine (Sigma Aldrich) and 50 μg/ml gentamycin (Gibco). K562 were propagated in RPMI-1640 (Sigma Aldrich) supplemented with 20% fetal bovine serum (HyClone), 2 mM L-glutamine (Sigma Aldrich) and 50 μg/ml gentamycin (Gibco).
(§3) In order to assess the anti-proliferative effects, 1,500 MV-4-11, 300 MOLM14 or 750 K562 cells were seeded in 200 μl media per well in 96-well round bottom, ultra-low attachment plates (Costar, catalogue number 7007). Cell seeding numbers were chosen based on growth curves to ensure linear growth throughout the experiment. Test compounds were added at different concentrations and the DMSO content was normalized to 0.3%. Cells were incubated for 8 d at 37° C. and 5% CO2. Spheroid like growth was monitored in real-time by live-cell imaging (IncuCyteZOOM, Essenbio, 4× objective) acquiring one image every four hours for 8 d. Confluence (%) as a measure of spheroid size was determined using an integrated analysis tool.
In order to determine the cumulative effect of the test compounds over time, the area under the curve (AUC) in a plot of confluence against time was calculated. Confluence at the beginning of the experiment (t=0) was used as baseline for the AUC calculation.
Absolute IC50 values were calculated according to the following procedure:
% Control=(AUC sample/AUC control)*100
AUC control=mean AUC of control values (cells without compound/DMSO as vehicle control)
A non-linear curve fit was applied using the least squares (ordinary) fit method to the plot of % control versus compound concentration. Based on this, the absolute IC50 value (half maximal inhibitory concentration of the test compound causing an anti-proliferative effect of 50% relative to the vehicle control) was calculated.
Regarding `FC(F)(F)Cc1cc2c(N3CC[C@]4(CC[C@H](NCc5ccccc5)C4)C3)ncnc2s1` (single isomer, unassigned) [Compound 4], the IC50 amounted to 0.5 µM.

As for `FC(F)(F)Cc1cc2c(N3CC[C@@]4(CC[C@H](NCc5ccccc5)C4)C3)ncnc2s1` (single isomer, unassigned) [Compound 6], the IC50 amounted to 1.12 µM.

For the compound `CC(C)CNC1CC2(CCN(c3ncnc4sc(CC(F)(F)F)cc34)C2)C1` (stereo not shown) [Compound 50], the IC50 was determined as 0.91 µM.

Another test deals with MOLM14 cells. As to the kind of experiment: Proliferation assay B (spheroid assay) MOLM14. In kind it is cell-based, human. To be noted: Homo sapiens, MOLM-14, 192 h, confluence at day 8, read-out: (3b) Spheroid assay MOLM14 (IC50(μM)) Assay B. The procedure: 3b) Proliferation Assay B
as §1, §2
as §3, with “MOLM14 cells” for “MOLM14”, “measured” for “monitored”, “images at day 8.” for “one image every four hours for 8 d.”
In order to determine the effect of the test compounds over time, the confluence in each well as a measure of spheroid size, was calculated. Confluence […] at the beginning of the experiment (t=0) was used as baseline for the calculation.
Absolute IC50 values were calculated as percent change in confluence as follows:
LC=Low Control: cells treated with 1 μM of the cytotoxic agent staurosporin
HC=High Control: Mean confluence (%) (DMSO treated cells)
Effect=100−(100*(Sample−LC)/(HC−LC))
To determine the IC50 a curve is fitted to the plot of % Effect vs Log 10 compound concentration using a sigmoidal fit with a variable slope and fixing the maximum to 100% and the minimum to 0%.
For the compound `Nc1nc(N2CCC3(CC(Nc4ccc5oc(=O)[nH]c5c4)C3)C2)c2cc(CC(F)(F)F)sc2n1` (stereo not shown) [Compound 380], the IC50 is greater than 3.75 µM.

Consider `CNC(=O)c1ccc(NC2CC3(CCN(c4ncnc5sc(CC(F)(F)F)cc45)C3)C2)cc1NCCN(C)C` (mixture of isomers) [Compound 239], for which the IC50 is greater than 3.75 µM.

In the case of `CN(C)CCNC(=O)c1ccc(NC2CC3(CCN(c4ncnc5sc(CC(F)(F)F)cc45)C3)C2)cc1` (single isomer, unassigned) [Compound 74], the IC50 is greater than 3.75 µM.

With `CNC(=O)c1ccc(NC2CC3(CCN(c4ncnc5sc(CC(F)(F)F)cc45)C3)C2)c(Cl)c1` (single isomer, unassigned) [Compound 68], the IC50 was 2.24 µM.

`CN1CCN(Cc2cc(NC3CC4(CCN(c5ncnc6sc(CC(F)(F)F)cc56)C4)C3)ccc2C#N)CC1` (mixture of isomers) [Compound 225]: the concentration for half-maximal inhibition (IC50) turned out to be 1.95 µM.

For the compound `CN1CCN(c2cc(NC3CC4(CCN(c5ncnc6sc(CC(F)(F)F)cc56)C4)C3)ccc2C#N)CC1` (mixture of isomers) [Compound 240], the IC50 is 1.14 µM.

Staying with this test, now noted: confluence at day 8, read-out: (3b) Spheroid assay MOLM14 (IC50(μM)) Assay B.
As to `CS(=O)(=O)N1CCN(C(=O)c2ccc(NC3CC4(CCN(c5ncnc6sc(CC(F)(F)F)cc56)C4)C3)cc2)CC1` (single isomer, unassigned) [Compound 179], the 50% inhibitory concentration (IC50) is greater than 3.75 µM.

As for `O=C(c1cnc(NC2CC3(CCN(c4ncnc5sc(CC(F)(F)F)cc45)C3)C2)nc1)N1CCOCC1` (single isomer, unassigned) [Compound 259], the IC50 is greater than 3.75 µM.

As to `CNC(=O)c1ccc(NC2CC3(CCN(c4ncnc5sc(CC(F)(F)F)cc45)C3)C2)cc1C1CCN(C)CC1` (single isomer, unassigned) [Compound 231], the half-maximal inhibitory concentration (IC50) was greater than 3.75 µM.

In the case of `CN1CCC(c2cc(NC3CC4(CCN(c5ncnc6sc(CC(F)(F)F)cc56)C4)C3)ccc2C(=O)N2CCOCC2)CC1` (single isomer, unassigned) [Compound 233], the half-inhibitory concentration (IC50) was greater than 3.75 µM.

`COC1CCN(C(=O)c2ccc(NC3CC4(CCN(c5ncnc6sc(CC(F)(F)F)cc56)C4)C3)cc2)CC1` (single isomer, unassigned) [Compound 184]: the IC50 was greater than 3.75 µM.

Regarding `CNC(=O)c1c(F)cc(NC2CC3(CCN(c4ncnc5sc(CC(F)(F)F)cc45)C3)C2)cc1F` (single isomer, unassigned) [Compound 244], the half-inhibitory concentration (IC50) was greater than 3.75 µM.

For the origin of these results see US20230039917A1, “EXO-AZA SPIRO INHIBITORS OF MENIN-MLL INTERACTION” (Janssen Pharmaceutica NV, priority 2017, published 2023).
